The text below walks through data of patent publication US20060264419A1 (priority 2003, published 2006).

The target of assay [1] is 5-HT2A receptors (Rattus norvegicus, UniProt P14842). As to the kind of experiment: in-vitro affinity to 5-HT2A receptors, displacement of [3H]ketanserine (Example A1). It is filed as binding. The following applies: read-out: HT2A IC50. From the text: The 5-HT2A receptors are exposed both to [^3H]ketanserine (a substance which is known for its affinity to the receptor) and also to the test compound. The decrease in the affinity of [^3H]ketanserine to the receptor is an indication of the affinity of the test substance to the 5-HT2A receptor.
Sequence of 5-HT2A receptors (P14842 whole entry): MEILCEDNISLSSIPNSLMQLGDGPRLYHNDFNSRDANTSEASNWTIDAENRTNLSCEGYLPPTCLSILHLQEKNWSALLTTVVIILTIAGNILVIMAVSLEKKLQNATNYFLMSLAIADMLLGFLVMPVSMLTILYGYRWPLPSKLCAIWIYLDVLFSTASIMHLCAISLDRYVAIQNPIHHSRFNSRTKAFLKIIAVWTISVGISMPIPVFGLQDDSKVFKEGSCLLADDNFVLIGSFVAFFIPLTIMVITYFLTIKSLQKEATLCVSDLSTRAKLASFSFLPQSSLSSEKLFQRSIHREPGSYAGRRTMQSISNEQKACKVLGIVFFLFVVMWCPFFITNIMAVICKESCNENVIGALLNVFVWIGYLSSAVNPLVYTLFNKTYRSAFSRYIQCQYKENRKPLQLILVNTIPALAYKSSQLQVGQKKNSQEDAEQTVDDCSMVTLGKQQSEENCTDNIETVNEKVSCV
(Loss of bound radioactivity is the signal in a displacement assay; it reports binding, not function.)

In assay [2] the target is T1, 5 HT2C receptor (Homo sapiens, UniProt P28335).
T1 sequence (P28335 33-458): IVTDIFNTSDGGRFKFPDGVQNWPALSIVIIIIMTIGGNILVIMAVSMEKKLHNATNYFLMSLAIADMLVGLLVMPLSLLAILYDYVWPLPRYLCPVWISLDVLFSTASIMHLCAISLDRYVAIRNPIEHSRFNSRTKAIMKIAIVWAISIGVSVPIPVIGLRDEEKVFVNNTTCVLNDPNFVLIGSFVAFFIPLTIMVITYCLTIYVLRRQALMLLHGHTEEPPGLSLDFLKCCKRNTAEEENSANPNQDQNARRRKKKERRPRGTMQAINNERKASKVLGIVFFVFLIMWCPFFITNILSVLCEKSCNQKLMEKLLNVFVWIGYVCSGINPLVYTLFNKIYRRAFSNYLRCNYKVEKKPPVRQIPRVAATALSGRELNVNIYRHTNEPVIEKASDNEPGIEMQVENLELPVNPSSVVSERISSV
In words: affinity to the 5 HT2C receptor. It is filed as binding.

For `CN(C)CCc1cnn(-c2ccc(-c3ccc(F)cc3)cc2)c1-c1ccccc1F` [Example 890, {2-[1-(4′-Fluorobiphenyl-4-yl)-5-(2-fluoro-phenyl)-1H-pyrazol-4-yl]ethyl}dimethylamine], the half-inhibitory concentration (IC50) in assay [1] worked out at 1.5 nM; in assay [2] it was 27.4 nM. Regarding `CN1CCN(Cc2cnn(-c3ccc(-c4ccsc4)cc3)c2-c2ccco2)CC1` [Example 891, 1-[5-Furan-2-yl-1-(4-thiophen-3-ylphenyl)-1H-pyrazol-4-ylmethyl]-4-methylpiperazine], the 50% inhibitory concentration (IC50) was 4.5 nM in assay [1] and 210 nM in assay [2]. Regarding `OCCNCc1cnn(-c2ccc(-c3ccccc3)cc2)c1-c1ccccc1F` [Example 892, 2-{[1-Biphenyl-4-yl-5-(2-fluorophenyl)-1H-pyrazol-4-ylmethyl]amino}ethanol], the IC50 in assay [1] was 5.2 nM; in assay [2], 420 nM.

Consider `CN1CCCN(Cc2cnn(-c3ccc(-c4ccccc4)cc3)c2-c2ccccc2F)CC1` [Example 893, 1-[1-Biphenyl-4-yl-5-(2-fluorophenyl)-1H-pyrazol-4-ylmethyl]-4-methyl-[1,4]diazepam], for which the IC50 in assay [1] is 6.4 nM; in assay [2], 230 nM. Consider `NCCNCc1cnn(-c2ccc(-c3ccccc3)cc2)c1-c1ccccc1F` [Example 894, N-[1-Biphenyl-4-yl-5-(2-fluorophenyl)-1H-pyrazol-4-ylmethyl]ethane-1,2-diamine], for which the IC50 was determined as 6.5 nM in assay [1] and 450 nM in assay [2]. Turning to `COc1ccc(-c2ccc(-n3ncc(CN4CCN(C)CC4)c3-c3ccccc3F)cc2)cc1` [Example 895, 1-[5-(2-Fluorophenyl)-1-(4′-methoxy-biphenyl-4-yl)-1H-pyrazol-4-ylmethyl]-4-methyl-piperazine], the IC50 in assay [1] worked out at 7.5 nM; in assay [2], 1150 nM.

For the molecule `CC(C)(C)OC(=O)N1CCN(Cc2cnn(-c3ccc(C(F)(F)F)cc3)c2-c2ccccc2F)CC1` [Example 896, tert-Butyl 4-[5-(2-fluorophenyl)-1-(4-trifluoro-methylphenyl)-1H-pyrazol-4-ylmethyl]-piperazine-1-carboxylate], the half-inhibitory concentration (IC50) in assay [1] came out at 8 nM; in assay [2] it was 43000 nM. As to `CCN(CC)Cc1cnn(-c2ccc(-c3ccccc3)cc2)c1-c1ccccc1F` [Example 897, [1-Biphenyl-4-yl-5-(2-fluorophenyl)-1H-pyrazol-4-ylmethyl]diethylamine], the IC50 came to 11 nM in assay [1] and 1000 nM in assay [2].

On to `Fc1ccccc1-c1c(CCN2CCOCC2)cnn1-c1ccc(-c2ccccc2)cc1` [Example 898, 4-{2-[1-Biphenyl-4-yl-5-(2-fluoro-phenyl)-1H-pyrazol-4-yl]ethyl}morpholine], for which the IC50 turned out to be 12 nM in assay [1] and 1000 nM in assay [2]. Take `CN1CCN(Cc2cnn(-c3ccc(-c4ccc(F)cc4)cc3)c2-c2ccccc2)CC1` [Example 900, 1-[1-(4′-Fluorobiphenyl-4-yl)-5-phenyl-1H-pyrazol-4-ylmethyl]-4-methylpiperazine]: the IC50 in assay [1] was 13 nM; in assay [2], 310 nM. On to `CN1CCN(Cc2cnn(-c3ccc(-c4ccc5c(c4)OCCO5)cc3)c2-c2ccccc2F)CC1` [Example 901, 1-[1-[4-(2,3-Dihydrobenzo[1,4]dioxin-6-yl)-phenyl]-5-(2-fluorophenyl)-1H-pyrazol-4-yl-methyl]-4-methyl-piperazine], for which the concentration for half-maximal inhibition (IC50) in assay [1] amounted to 13 nM; in assay [2] it was 870 nM. In the case of `CN1CCN(Cc2cnn(-c3ccc(-c4ccc(F)cc4)cc3)c2-c2ccccc2F)CC1` [Example 902, 1-[1-(4′-Fluorobiphenyl-4-yl)-5-(2-fluoro-phenyl)-1H-pyrazol-4-ylmethyl]-4-methyl-piperazine], the half-maximal inhibitory concentration (IC50) worked out at 13.1 nM in assay [1] and 215 nM in assay [2]. As for `CN1CCN(NCc2cnn(-c3ccc(-c4ccccc4)cc3)c2-c2ccccc2F)CC1` [Example 903, [1-Biphenyl-4-yl-5-(2-fluorophenyl)-1H-pyrazol-4-ylmethyl]-(4-methylpiperazin-1-yl)amine], the half-maximal inhibitory concentration (IC50) in assay [1] was 14 nM; in assay [2], 470 nM. `OC1CCN(Cc2cnn(-c3ccc(-c4ccccc4)cc3)c2-c2ccccc2F)C1` (centres unmarked) [Example 904, 1-[1-Biphenyl-4-yl-5-(2-fluorophenyl)-1H-pyrazol-4-ylmethyl]pyrrolidin-3-ol]: the values for the 50% inhibitory concentration (IC50) in assay [1] and in assay [2] were 14 nM and 2000 nM, respectively.

With `COCCNCc1cnn(-c2ccc(-c3ccccc3)cc2)c1-c1ccccc1F` [Example 905, [1-Biphenyl-4-yl-5-(2-fluorophenyl)-1H-pyrazol-4-ylmethyl]-(2-methoxyethyl)amine], the half-inhibitory concentration (IC50) came to 16 nM in assay [1] and 1000 nM in assay [2].

For `CN(CCO)Cc1cnn(-c2ccc(-c3ccccc3)cc2)c1-c1ccccc1F` [Example 906, 2-{[1-Biphenyl-4-yl-5-(2-fluorophenyl)-1H-pyrazol-4-ylmethyl]methylamino}ethanol], the values for the IC50 in assay [1] and in assay [2] were 16 nM and 1000 nM, respectively. Take `CN1CCC(N(C)Cc2cnn(-c3ccc(-c4ccccc4)cc3)c2-c2ccccc2F)C1` (centres unmarked) [Example 907, [1-Biphenyl-4-yl-5-(2-fluorophenyl)-1H-pyrazol-4-ylmethyl]methyl-(1-methylpyrrolidin-3-yl)amine]: the IC50 in assay [1] came to 16 nM; in assay [2], 84 nM. Turning to `CN1CCN(Cc2cnn(-c3ccc(-n4cccc4)cc3)c2-c2ccccc2F)CC1` [Example 909, 1-[5-(2-Fluorophenyl)-1-(4-pyrrol-1-ylphenyl)-1H-pyrazol-4-ylmethyl]-4-methylpiperazine], the values for the IC50 in assay [1] and in assay [2] were 17 nM and 210 nM, respectively. Turning to `NC(=O)CN1CCN(Cc2cnn(-c3ccc(-c4ccccc4)cc3)c2-c2ccccc2F)CC1` [Example 1042, 2-{4-[1-Biphenyl-4-yl-5-(2-fluoro-phenyl)-1H-pyrazol-4-ylmethyl]piperazin-1-yl}acetamide], in assay [1], the IC50 is 360 nM. `O=C(c1cnn(-c2ccc(-c3ccccc3)cc2)c1-c1ccccc1F)N1CCOCC1` [Example 1043, 1-[1-Biphenyl-4-yl-5-(2-fluorophenyl)-1H-pyrazol-4-yl]-1-morpholin-4-ylmethanone]: the IC50 in assay [1] was 360 nM.

Consider `Fc1ccc(F)c(-c2ccc(-n3ncc(CNCC4CCCO4)c3-c3ccccc3F)cc2)c1` (centres unmarked) [Example 1044, [1-(2′,5′-Difluorobiphenyl-4-yl)-5-(2-fluoro-phenyl)-1H-pyrazol-4-ylmethyl](tetrahydro-furan-2-ylmethyl)amine], for which the IC50 in assay [1] came out at 370 nM. Still for that read-out and setting: then `OCC(Cc1cnc[nH]1)NCc1cnn(-c2ccc(-c3ccccc3)cc2)c1-c1ccccc1F` (centres unmarked) [Example 1045, 2-{[1-Biphenyl-4-yl-5-(2-fluoro-phenyl)-1H-pyrazol-4-ylmethyl]amino}-3-(3H-imidazol-4-yl)propan-1-ol], with 370 nM; and `Cc1cnc(NCc2cnn(-c3ccc(-c4ccccc4)cc3)c2-c2ccccc2F)s1` [Example 1046, [1-Biphenyl-4-yl-5-(2-fluorophenyl)-1H-pyrazol-4-ylmethyl]-(5-methylthiazol-2-yl)amine], with 370 nM. Turning to `Fc1ccccc1-c1c(CN2CCN(Cc3ccsc3)CC2)cnn1-c1ccc(-c2ccccc2)cc1` [Example 1047, 1-[1-Biphenyl-4-yl-5-(2-fluorophenyl)-1H-pyrazol-4-ylmethyl]-4-thiophen-3-ylmethyl-piperazine], the half-maximal inhibitory concentration (IC50) in assay [1] was found to be 380 nM. The same measure, in the same setting: then `OCc1cnn(-c2ccc(-c3ccc(F)cc3)cc2)c1-c1ccccc1Cl` [Example 1048, [5-(2-Chlorophenyl)-1-(4′-fluoro-biphenyl-4-yl)-1H-pyrazol-4-yl]methanol], with 380 nM; and `CN1CCN(Cc2cnn(-c3cccc(-c4ccc(Cl)cc4)c3)c2-c2ccccc2F)CC1` [Example 1049, 1-[1-(4′-Chlorobiphenyl-3-yl)-5-(2-fluoro-phenyl)-1H-pyrazol-4-ylmethyl]-4-methyl-piperazine], with 390 nM. Turning to `OC1CCN(Cc2cnn(-c3ccc(C(F)(F)F)cn3)c2-c2ccccc2F)C1` (centres unmarked) [Example 1050, 1-[5-(2-Fluorophenyl)-1-(5-trifluoro-methylpyridin-2-yl)-1H-pyrazol-4-ylmethyl]pyrrolidin-3-ol], in assay [1], the IC50 is 390 nM. `CN1CCN(Cc2cnn(-c3ccc(-c4ccc(F)cc4)cc3)c2-c2cc(Cl)cc(Cl)c2)CC1` [Example 1052, 1-[5-(3,5-Dichlorophenyl)-1-(4′-fluoro-biphenyl-4-yl)-1H-pyrazol-4-ylmethyl]-4-methyl-piperazine]: in assay [1], the half-inhibitory concentration (IC50) came to 400 nM.

Consider `OC1CCN(Cc2cnn(-c3ccc(-c4ccccc4)cc3)c2-c2ccccc2F)CC1` [Example 1053, 1-[1-Biphenyl-4-yl-5-(2-fluorophenyl)-1H-pyrazol-4-ylmethyl]piperidin-4-ol], for which the IC50 in assay [1] was found to be 430 nM.

Turning to `CC(C)(C)OC(=O)N1CCC(NCc2cnn(-c3ccc(-c4ccccc4)cc3)c2-c2ccccc2F)C1` (centres unmarked) [Example 1056, tert-Butyl 3-{[1-biphenyl-4-yl-5-(2-fluoro-phenyl)-1H-pyrazol-4-ylmethyl]amino}pyrrolidine-1-carboxylate], the half-inhibitory concentration (IC50) in assay [1] was 460 nM. Still for that read-out and setting: to `Fc1ccccc1-c1c(CNC2CCNCC2)cnn1-c1ccc(-c2ccccc2)cc1` [Example 1058, [1-Biphenyl-4-yl-5-(2-fluorophenyl)-1H-pyrazol-4-ylmethyl]piperidin-4-ylamine] belongs 470 nM. With `OCCc1cnn(-c2ccc(-c3ccccc3)cc2)c1-c1ccccc1F` [Example 1059, 2-[1-Biphenyl-4-yl-5-(2-fluoro-phenyl)-1H-pyrazol-4-yl]ethanol], the IC50 in assay [1] is 470 nM.

What is called IC50 is the concentration needed to halve the response being measured.
